The species named for test [1] is Homo sapiens. Nature of the test: Selectivity ratio of Ki for human recombinant Ecto-5'-nucleotidase to Ki for human recombinant NPP1.
The species entered for test [2] is Homo sapiens. Kind of test: Selectivity ratio of Ki for human recombinant soluble NTPDase3 to Ki for human recombinant NPP1.
In test [3] the target is 5'-nucleotidase (Homo sapiens) (UniProt P21589). Nature of the test: Inhibition of human recombinant Ecto-5'-nucleotidase expressed in CHO cells using AMP as substrate at >100 uM preincubated with substrate followed by protein addition and subsequent incubation for 30 mins by capillary electrophoresis.
Sequence of 5'-nucleotidase (Homo sapiens) (P21589 whole entry): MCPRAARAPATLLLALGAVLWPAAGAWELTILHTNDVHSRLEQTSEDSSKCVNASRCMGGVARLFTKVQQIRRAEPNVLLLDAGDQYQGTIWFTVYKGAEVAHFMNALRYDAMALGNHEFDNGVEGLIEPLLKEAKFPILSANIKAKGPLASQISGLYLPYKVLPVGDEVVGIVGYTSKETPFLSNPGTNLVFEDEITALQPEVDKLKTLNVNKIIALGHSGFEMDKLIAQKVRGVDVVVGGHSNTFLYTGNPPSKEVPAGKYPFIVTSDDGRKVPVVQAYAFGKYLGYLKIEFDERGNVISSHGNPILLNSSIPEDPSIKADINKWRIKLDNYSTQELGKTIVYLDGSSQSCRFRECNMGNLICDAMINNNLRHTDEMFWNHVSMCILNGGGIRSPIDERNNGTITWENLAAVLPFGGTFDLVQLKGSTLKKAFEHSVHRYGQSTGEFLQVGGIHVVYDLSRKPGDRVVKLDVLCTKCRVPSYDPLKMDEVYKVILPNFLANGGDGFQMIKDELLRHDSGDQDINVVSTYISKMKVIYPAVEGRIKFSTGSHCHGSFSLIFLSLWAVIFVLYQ

Calls of active or inactive are those of the source. No cut-off for these calls is given here.

Take `O=c1/c(=C/c2ccc(I)o2)sc2nc3ccccc3n12`: the Ratio Ki in the test filed under Homo sapiens [1] and in the test listed under Homo sapiens [2] was 1000 each time. For the same molecule, the inhibition entry in test [3] was “Active”.

(Values after ChEMBL document CHEMBL3813632, “Thiazolo[3,2-a]benzimidazol-3(2H)-one derivatives: Structure-activity relationships of selective nucleotide pyrophosphatase/phosphodiesterase1 (NPP1) inhibitors” (Bioorg Med Chem, 2016).)
